Source: PubChem BioAssay (NCI)
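Interpolation was linear, between the two tested concentrations surrounding the appropriate level; five concentrations were tested over 48 hours in 96-well plates. At the TGI there is no net growth.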

Experiments:
Assay in all cases: NCI tumour cell line growth inhibition, 48 h
[1] = test system: OVCAR-5 ovarian
[2] = test system: SF-295 CNS
[3] = test system: NCI-H226 lung
[4] = test system: ACHN renal
[5] = test system: RPMI-8226 leukemia
[6] = test system: UACC-62 melanoma
[7] = test system: A498 renal
[8] = test system: UACC-257 melanoma
[9] = test system: SK-OV-3 ovarian
[10] = test system: LOX IMVI melanoma

COc1cc(OC)c2c(O)c(S(=O)(=O)c3ccc(C)cc3)c(=O)oc2c1
TGI [1]: > 100 µM | TGI [2]: > 100 µM | TGI [3]: > 100 µM | TGI [4]: > 100 µM | TGI [5]: > 100 µM | TGI [6]: > 100 µM | TGI [7]: > 100 µM | TGI [8]: > 100 µM | TGI [9]: > 100 µM

CN(C)Cc1cc(C(=O)/C=C/c2cccc(Cl)c2)cc(CN(C)C)c1O
TGI [1]: 19 µM | TGI [2]: 27 µM | TGI [3]: 19.6 µM | TGI [4]: 10.3 µM | TGI [10]: 10.9 µM | TGI [5]: 7.73 µM | TGI [6]: 22.3 µM | TGI [7]: 14.2 µM | TGI [8]: 19.9 µM

COc1cc(C(c2cccc3ccccc23)N2C(=O)CCC2C(=O)NCc2ccccc2)cc(OC)c1OC (stereo not given)
TGI [1]: > 100 µM | TGI [2]: > 100 µM | TGI [3]: > 100 µM | TGI [10]: > 100 µM | TGI [5]: > 100 µM | TGI [6]: > 100 µM | TGI [7]: > 100 µM | TGI [8]: > 100 µM | TGI [9]: > 100 µM

N#Cc1c(Nc2nc3ccccc3s2)c2ccccc2n2c1nc1ccccc12
TGI [1]: > 100 µM | TGI [2]: > 100 µM | TGI [4]: > 100 µM | TGI [10]: > 100 µM | TGI [5]: > 100 µM | TGI [6]: > 100 µM | TGI [7]: > 100 µM | TGI [8]: > 100 µM

COc1cccc(NC(=O)CC(=O)NNCC(=O)Nc2nnc(-c3ccc(N(CCC#N)S(=O)(=O)c4ccccc4)cc3)s2)c1
TGI [1]: > 100 µM | TGI [2]: > 100 µM | TGI [3]: > 100 µM | TGI [4]: > 100 µM | TGI [10]: > 100 µM | TGI [5]: > 100 µM | TGI [6]: > 100 µM | TGI [9]: > 100 µM

CN1Cc2c(nc(-c3ccc(Br)cc3)c[n+]2[O-])N(C)C1
TGI [1]: > 100 µM | TGI [2]: > 100 µM | TGI [3]: > 100 µM | TGI [4]: > 100 µM | TGI [7]: > 100 µM | TGI [8]: > 100 µM | TGI [9]: > 100 µM

Cc1nn(C)c2nc3ccc(Cl)cc3c(-c3ccccc3)c12
TGI [1]: > 100 µM | TGI [2]: > 100 µM | TGI [3]: > 100 µM | TGI [4]: > 100 µM | TGI [5]: > 100 µM | TGI [6]: > 100 µM | TGI [7]: > 100 µM | TGI [8]: > 100 µM | TGI [9]: > 100 µM

CCCCc1ccc(-n2sc3ncccc3c2=O)cc1
TGI [1]: 40.6 µM | TGI [2]: 31.2 µM | TGI [3]: 64.2 µM | TGI [4]: 23.5 µM | TGI [10]: 43.6 µM | TGI [5]: > 100 µM | TGI [6]: 43.9 µM | TGI [8]: 43.7 µM | TGI [9]: 90.5 µM

CC(C)C(C/C=C1/CC(CO)(COC(=O)C2CCCCC2)OC1=O)C(C)C (stereo not given)
TGI [1]: 40.7 µM | TGI [2]: 29 µM | TGI [3]: 48.6 µM | TGI [4]: 30.2 µM | TGI [10]: 29.4 µM | TGI [6]: > 100 µM | TGI [7]: 76.2 µM | TGI [8]: 78.7 µM | TGI [9]: > 100 µM

COc1cc(OC)cc(-n2c(N)c(-c3nc4ccccc4n3C)c3ccc([N+](=O)[O-])cc3c2=O)c1
TGI [3]: > 100 µM | TGI [4]: > 100 µM | TGI [10]: > 100 µM | TGI [5]: > 100 µM | TGI [6]: > 100 µM | TGI [7]: > 100 µM | TGI [8]: > 100 µM

CC(=O)Nc1ccc(C(=O)N2N=C(C)/C(=C/c3cccc([N+](=O)[O-])c3)C2=O)cc1
TGI [1]: > 100 µM | TGI [2]: > 100 µM | TGI [3]: > 100 µM | TGI [4]: > 100 µM | TGI [10]: > 100 µM | TGI [5]: > 100 µM | TGI [8]: > 100 µM

CC(=O)C12C[C@](C#N)(N3CCCCCC3)C1C=Cc1ccccc12 (stereo not given in full)
TGI [2]: > 100 µM | TGI [3]: > 100 µM | TGI [4]: > 100 µM | TGI [5]: > 100 µM | TGI [6]: > 100 µM | TGI [8]: > 100 µM | TGI [9]: > 100 µM

N#CC1(c2ccccc2)CCN(C2(c3ccccc3)CCCCC2)CC1
TGI [1]: > 100 µM | TGI [2]: > 100 µM | TGI [3]: > 100 µM | TGI [4]: > 100 µM | TGI [10]: > 100 µM | TGI [5]: > 100 µM | TGI [6]: > 100 µM | TGI [8]: > 100 µM | TGI [9]: > 100 µM

[N-]=[N+]=NC[C@H]1OCO[C@H](CN=[N+]=[N-])[C@H]2OCCOCCOc3ccccc3OCCOCCO[C@@H]21
TGI [2]: > 100 µM | TGI [3]: > 100 µM | TGI [10]: > 100 µM | TGI [5]: > 100 µM | TGI [6]: > 100 µM | TGI [8]: > 100 µM | TGI [9]: > 100 µM

C=CCC1(CC)C(=O)NC(=O)NC1=O
TGI [3]: > 100 µM | TGI [4]: > 100 µM | TGI [10]: > 100 µM | TGI [5]: > 100 µM | TGI [6]: > 100 µM | TGI [8]: > 100 µM | TGI [9]: > 100 µM

C=CC(C)(C)c1cc([C@@H]2COc3cc(O)ccc3C2=O)c(O)c(O)c1OC
TGI [1]: > 100 µM | TGI [2]: > 100 µM | TGI [3]: > 100 µM | TGI [4]: 31.4 µM | TGI [10]: 66.8 µM | TGI [6]: 34.4 µM | TGI [8]: > 100 µM | TGI [9]: 61 µM

Cc1cc(S(=O)(=O)Nc2nc3ccccc3n2-c2ccccc2)c(S)cc1Cl
TGI [1]: > 100 µM | TGI [2]: > 100 µM | TGI [3]: > 100 µM | TGI [4]: > 100 µM | TGI [10]: > 100 µM | TGI [5]: > 100 µM | TGI [6]: > 100 µM | TGI [8]: > 100 µM

COc1ccc2c(c1)CC1Cc3ccccc3CCN1C2 (stereo not given)
TGI [1]: > 100 µM | TGI [2]: > 100 µM | TGI [3]: > 100 µM | TGI [4]: > 100 µM | TGI [10]: 51.8 µM | TGI [5]: 92.3 µM | TGI [6]: > 100 µM | TGI [8]: > 100 µM | TGI [9]: > 100 µM

CCN1CCCC(Nc2cc(C)nc(/N=C(/N)Nc3ccc(Cl)c(Cl)c3)n2)C1 (stereo not given)
TGI [1]: 8.11 µM | TGI [2]: 2.41 µM | TGI [4]: 5.56 µM | TGI [5]: 2.3 µM | TGI [6]: 3.31 µM | TGI [9]: 5.24 µM

CCOC(=O)c1c(NCc2ccccc2)n(-c2ccccc2)c(=S)n(-c2ccccc2)c1=O
TGI [1]: > 100 µM | TGI [2]: > 100 µM | TGI [3]: > 100 µM | TGI [4]: > 100 µM | TGI [10]: > 100 µM | TGI [5]: > 100 µM | TGI [6]: > 100 µM | TGI [8]: > 100 µM

COC(=O)/C=C/c1cc(OC)c2oc(-c3ccc(OC)c(OC)c3)c(C(=O)OC)c2c1
TGI [1]: > 100 µM | TGI [2]: > 100 µM | TGI [4]: > 100 µM | TGI [10]: > 100 µM | TGI [5]: > 100 µM | TGI [6]: > 100 µM | TGI [7]: > 100 µM | TGI [8]: > 100 µM | TGI [9]: > 100 µM

Cc1ccc(S(=O)(=O)c2ccc([N+](=O)[O-])o2)cc1
TGI [1]: 4.77 µM | TGI [2]: 43.9 µM | TGI [3]: 31.5 µM | TGI [4]: 3.03 µM | TGI [10]: 2.91 µM | TGI [6]: 6.17 µM | TGI [7]: 33.9 µM | TGI [8]: 3.61 µM | TGI [9]: 35.2 µM

CSCCCNC(=O)c1csc(-c2csc(CCNC(=O)CNC(=O)CNC(=O)CNC(=O)OC(C)(C)C)n2)n1
TGI [1]: > 100 µM | TGI [2]: > 100 µM | TGI [3]: > 100 µM | TGI [4]: > 100 µM | TGI [10]: > 100 µM | TGI [6]: > 100 µM | TGI [7]: > 100 µM | TGI [8]: > 100 µM | TGI [9]: > 100 µM

CC(C)(C)OC(=O)NCC(=O)NC1C/C(=N\O)c2sccc21 (stereo not given)
TGI [1]: > 100 µM | TGI [2]: > 100 µM | TGI [3]: > 100 µM | TGI [10]: > 100 µM | TGI [6]: > 100 µM | TGI [7]: > 100 µM | TGI [8]: > 100 µM | TGI [9]: > 100 µM
